# According to publication PMC9572513, “Novel Unsymmetric 3,5-Bis(benzylidene)-4-piperidones That Display Tumor-Selective Toxicity” (Molecules, 2022):
# Structures can show the parent of a compound that is named as a salt. Where two headings read alike, the source gives them in different places.
# Columns and labels:
# [1] = MTT cytotoxicity against human gingival fibroblast (HGF); type: cell-based; conditions: human, human gingival fibroblasts (HGF), non-malignant oral cells
# Procedure: (§1) The method for evaluating 2a–f and 3a–e against human oral squamous cell carcinoma (OSCC) cell lines (Ca9-22, HSC-2, HSC-3, HSC-4) and human non-malignant oral cells [human gingival fibroblast (HGF), human periodontal ligament fibroblast (HPLF), and human pulp cell (HPC)] have been reported previously, except the length of time of this bioassay was extended from 24 h to 48 h. In brief, different quantities of the compounds were incubated with the cells in Dulbecco’s modified eagle medium (DMEM), which was supplemented with 10% FBS and antibiotics. The cell viability was determined by the 3-(4,5-dimethylthiazol-2-yl)-2,5-diphenyl-2H-tetrazolium bromide (MTT) method as summarized previously (Figure 4).
# [2] = test system: HSC-2 squamous cell carcinoma cells; assay: MTT cytotoxicity against HSC-2 squamous cell carcinoma; type: cell-based, human; conditions: for CC50: Homo sapiens, read-out: HSC-2 CC50; for HSC-2 SI: average CC50 HGF/HPLF/HPC divided by CC50 HSC-2
# Procedure: as §1
# [3] = test system: Ca9-22 squamous cell carcinoma cells; assay: MTT cytotoxicity against Ca9-22 squamous cell carcinoma; type: cell-based, human; conditions: for CC50: Homo sapiens, read-out: Ca9-22 CC50; for Ca9-22 SI: average CC50 HGF/HPLF/HPC divided by CC50 Ca9-22
# Procedure: as §1
# [4] = test system: HL-60 cells; assay: Differential DNA staining (DNS) cytotoxicity assay, HL-60 cells; type: cell-based; conditions: Homo sapiens
# Procedure: (§2) The method used for generating the data of human acute lymphocytic leukemia (CEM) and human acute promyelocytic leukemia (HL-60) cells in Table 4 has been described previously. In brief, the cells were cultured in media supplemented with 10% FBS and antibiotics. […] The CC50 values of the compounds listed in Table 4 were obtained by linear interpolation equations [28, 29].
# [5] = test system: Ca9-22, HSC-2, HSC-3, and HSC-4 squamous cell carcinoma cell lines; assay: Average over Ca9-22, HSC-2, HSC-3 and HSC-4 OSCC cell lines; type: cell-based, human; conditions: for CC50: read-out: Average CC50; for Average SI: average of SI for four OSCC cell lines
# Procedure: as §1
# [6] = test system: HSC-3 squamous cell carcinoma cells; assay: MTT cytotoxicity against HSC-3 squamous cell carcinoma; type: cell-based, human; conditions: for CC50: Homo sapiens, read-out: HSC-3 CC50; for HSC-3 SI: average CC50 HGF/HPLF/HPC divided by CC50 HSC-3
# Procedure: as §1
# [7] = MTT cytotoxicity against human periodontal ligament fibroblast (HPLF); type: cell-based; conditions: human, human periodontal ligament fibroblasts (HPLF), non-malignant oral cells
# Procedure: as §1
# [8] = test system: HCT116 colon cancer cells; assay: Cytotoxicity against HCT116 colon cancer cells; type: cell-based, human; conditions: for IC50: Homo sapiens, HCT-116, 48 h, 48 h; for HCT116 SI (selectivity index): IC50 CRL1790 / IC50 HCT116
# Procedure: (§3) The culture medium was supplemented with 10% heat-inactivated fetal bovine serum (FBS) and 1% penicillin–streptomycin antibiotics. The time of the bioassays was 48 h. The determinations were undertaken in triplicate on three different occasions.
# [9] = test system: HCT116 and HT29 colon cancer cells; assay: Average over HCT116 and HT29 colon cancer cells; type: cell-based, human; conditions: for IC50: Homo sapiens, average of HCT116 and HT29, unit printed only for the single cell-line columns; for Average SI: average of SI for HCT116 and HT29; for PSE (potency-selectivity expression): reciprocal of average IC50 x average SI x 100, colon cells
# Procedure: as §3
# [10] = test system: CRL1790 non-malignant colon cells; assay: Cytotoxicity against CRL1790 non-malignant colon cells; type: cell-based; conditions: Homo sapiens, 48 h
# Procedure: as §3
# [11] = MTT cytotoxicity against human pulp cell (HPC); type: cell-based; conditions: human, human pulp cells (HPC), non-malignant oral cells
# Procedure: as §1
# [12] = test system: HSC-4 squamous cell carcinoma cells; assay: MTT cytotoxicity against HSC-4 squamous cell carcinoma; type: cell-based, human; conditions: for CC50: Homo sapiens, read-out: HSC-4 CC50; for HSC-4 SI: average CC50 HGF/HPLF/HPC divided by CC50 HSC-4
# Procedure: as §1
# [13] = Average over HGF, HPLF and HPC non-malignant oral cells; type: cell-based, human; conditions: human, HPLF and HPC non-malignant oral cells (average), average of HGF
# Procedure: as §1
# [14] = test system: CEM cells; assay: Differential DNA staining (DNS) cytotoxicity assay, CEM cells; type: cell-based; conditions: Homo sapiens, CCRF-CEM
# Procedure: as §2
# [15] = test system: HT29 colon cancer cells; assay: Cytotoxicity against HT29 colon cancer cells; type: cell-based, human; conditions: for IC50: 48 h; for HT29 SI (selectivity index): IC50 CRL1790 / IC50 HT29
# Procedure: as §3
# [16] = Homo sapiens, average of four OSCC cell lines
Compound,IC50 [9] [µM],CC50 at 48 h [1] [µM],"CC50 ([2]; HSC-2, 48 h, MTT) [µM]",HSC-2 SI [2],"CC50 ([3]; Ca9-22, 48 h, MTT) [µM]",Ca9-22 SI [3],"CC50 [5, 16] [µM]",Average SI [5],"CC50 ([6]; HSC-3, 48 h, MTT) [µM]",HSC-3 SI [6],CC50 at 48 h [7] [µM],Average SI [9],PSE (potency-selectivity expression) [9],IC50 [10] [µM],CC50 at 48 h [11] [µM],"CC50 ([12]; HSC-4, 48 h, MTT) [µM]",HSC-4 SI [12],CC50 at 48 h [13] [µM],"IC50 ([15]; Homo sapiens, HT-29, 48 h) [µM]",HT29 SI (selectivity index) [15],further results
"COc1ccc(/C=C2\CNC/C(=C\c3ccc(O)c(CN4CCCC4)c3)C2=O)cc1OC [Compound 2c, 3-[3-(1-Pyrrolidinylmethyl)-4-hydroxybenzylidene]-5-(3,4-dimethoxybenzylidene)-4-piperidone dihydrochloride]",2.51,68.6,14,3.83,8.2,6.54,12,4.69,11.7,4.58,48.9,12.2,486,26.4 ± 0.28,43.3,14.1,3.80,53.6,1.57 ± 0.54,16.8,"CC50 ([4]; HL-60, 24 h, read-out: CC50 HL-60 Cells 24 h): > 10 µM; CC50 ([4]; HL-60, 48 h, read-out: CC50 HL-60 Cells 48 h): > 10 µM; IC50 [8]: 3.44 ± 0.42 µM; HCT116 SI (selectivity index) [8]: 7.67; CC50 ([14]; 24 h, read-out: CC50 CEM Cells 24 h): > 10 µM; CC50 ([14]; 48 h, read-out: CC50 CEM Cells 48 h): 7.92 ± 0.98 µM"
"COc1ccc(/C=C2\CNC/C(=C\c3ccc(O)c(CN4CCCCC4)c3)C2=O)cc1OC [Compound 2d, 3-[3-(1-Piperidinylmethyl)-4-hydroxybenzylidene]-5-(3,4-dimethoxybenzylidene)-4-piperidone dihydrochloride]",0.5,7,0.61,<6.18,0.42,<8.98,< 1,7.47,0.39,<9.67,2.7,47.9,9580,23.5 ± 0.26,< 1.6,0.75,,< 3.77,< 1,43.5,CC50 ([5]; average of four OSCC cell lines): 0.54 µM; PSE (potency-selectivity expression) ([5]; reciprocal of average CC50 (OSCC) x average SI x 100): > 1000; IC50 [15]: 0.54 ± 0.17 µM
"COc1ccc(/C=C2\CNC/C(=C\c3ccc(O)c(CN4CCOCC4)c3)C2=O)cc1OC [Compound 2e, 3-[3-(4-Morpholinomethyl)-4-hydroxybenzylidene]-5-(3,4-dimethoxybenzylidene)-4-piperidone dihydrochloride]",3.56,> 200,88.5,>2.26,41.8,>4.79,69.3,3.12,73.2,>2.73,> 200,7.72,217,27.4 ± 0.42,> 200,,,> 200,3.75 ± 0.78,7.31,IC50 [8]: 3.37 ± 0.68 µM; HCT116 SI (selectivity index) [8]: 8.13
"O=c1[nH]cc(F)c(=O)[nH]1 [Compound 5-FU, 5-fluorouracil, reference compound]",8.97,> 1000,359,>2.79,141,>7.09,> 240,>35.0,450,>2.22,> 1000,3.10,34.6,17.6 ± 0.82,> 1000,7.8,>128,> 1000,14.4 ± 0.65,1.22,IC50 [8]: 3.54 ± 0.72 µM; HCT116 SI (selectivity index) [8]: 4.97
"COc1cccc2c1C(=O)c1c(O)c3c(c(O)c1C2=O)C[C@@](O)(C(=O)CO)C[C@@H]3O[C@H]1C[C@H](N)[C@H](O)[C@H](C)O1 [DXR, doxorubicin, reference compound]",,> 10,0.2,>50.0,0.33,>30.3,0.23,>48.4,0.24,>41.7,> 10,,,,> 10,0.14,>71.4,> 10,,,
"N[C@@H](Cc1ccc(N(CCCl)CCCl)cc1)C(=O)O [MPN, melphalan, reference compound]",,> 200,,>11.8,,>4.68,,>11.3,,>9.62,> 200,,,,> 200,,>19.2,> 200,,,"CC50 ([2]; HSC-2, 48 h): 17 µM; CC50 ([3]; Ca9-22, 48 h): 42.7 µM; CC50 ([5]; Homo sapiens): 22.7 µM; CC50 ([6]; HSC-3, 48 h): 20.8 µM; CC50 ([12]; HSC-4, 48 h): 10.4 µM"

# More lines, main results first:
IC50 [9] [µM],Compound,CC50 at 48 h [1] [µM],"CC50 ([2]; HSC-2, 48 h, MTT) [µM]",HSC-2 SI [2],"CC50 ([3]; Ca9-22, 48 h, MTT) [µM]",Ca9-22 SI [3],"CC50 [5, 16] [µM]",Average SI [5],"CC50 ([6]; HSC-3, 48 h, MTT) [µM]",HSC-3 SI [6],CC50 at 48 h [7] [µM],Average SI [9],PSE (potency-selectivity expression) [9],IC50 [10] [µM],CC50 at 48 h [11] [µM],"CC50 ([12]; HSC-4, 48 h, MTT) [µM]",HSC-4 SI [12],CC50 at 48 h [13] [µM],"IC50 ([15]; Homo sapiens, HT-29, 48 h) [µM]",HT29 SI (selectivity index) [15],further results
0.9,COc1ccc(/C=C2\CNC/C(=C\c3ccc(O)c(CN4CCN(C)CC4)c3)C2=O)cc1 [Compound 3c],8.8,1.1,5.00,0.66,8.33,1,5.81,1.05,5.24,4.9,15.1,1678,13.2 ± 0.36,2.8,1.18,4.66,5.5,0.76 ± 0.26,17.4,IC50 [8]: 1.04 ± 0.48 µM; HCT116 SI (selectivity index) [8]: 12.7
2.31,Cc1ccc(/C=C2\CNC/C(=C\c3ccc(O)c(CN4CCN(C)CC4)c3)C2=O)cc1 [Compound 3d],14.6,2.2,4.64,1.3,7.85,1.93,5.57,1.91,5.34,10.1,18.8,814,22.6 ± 0.59,6,2.29,4.45,10.2,0.71 ± 0.29,31.8,IC50 [8]: 3.91 ± 1.69 µM; HCT116 SI (selectivity index) [8]: 5.78
